The ED50 is the dose at which the effect has come halfway, by size or by number of responders.

Read-outs that look alike come from different tables or passages of the source.

For series [1], the system named is Mice (NMRI). Briefly: Formalin paw test (licking time). It is filed as in vivo. The conditions noted are these: for Formalin paw test licking time (s) at 100 mg/kg: 100 mg/kg p.o., 60 min before test, vehicle-treated mice 81.0±13.8 s; for Effect on licking in the formalin test at 300 mg/kg: 300 mg/kg p.o.; for ED50: Mus musculus, po, doses 10-300 mg/kg, FIG. 1, read-out: ED50 for reduction of licking time in the formalin paw test. Here is the method: The method, which detects analgesic/anti-inflammatory activity, follows that described by Wheeler-Aceto et al (see WHEELER-ACETO, H. & A., C. (1991), “Standardization of the rat paw formalin test for the evaluation of analgesics”, Psychopharmacology, 104, 35-44). Mice (NMRI) were given an intraplantar injection of 5% formalin (25 μl) into the posterior left paw. […] The time spent licking was counted for 15 minutes, beginning 15 minutes after injection of formalin. 10 mice were studied per group. The test was performed blind. ESL and CBZ were tested at the doses of 10, 30, 100 and 300 mg/kg p.o., and OXC and R-Lic were tested at the doses of 100 and 300 mg/kg p.o., administered 60 minutes before the test (i.e. 45 minutes before formalin), and compared with a vehicle control group in each experiment.

Series [2] has as its system Mice (NMRI). The conditions noted are these: mouse, in vivo.
A short description of series [3]: Rotarod test (motor impairment). It is filed as in vivo, mice. The note with it: male, mouse, in vivo, ip; intraperitoneally, 15 min after administration, 15 r.p.m. The protocol: (§1) A normal mouse can maintain its equilibrium for long periods in the rotating rod. Mice were examined for motor toxicity in the rotating rod apparatus (Accelerator Rota-Rod [Jones & Roberts] 7650; Ugo Basile). The motor performance of naive mice (male Charles River, weighing 30 to 35 g) was evaluated 15 min after the administration of the compounds to be tested. Animals were placed on the rotating rod at a speed of 15 r.p.m. In a drug-treated mouse the neurological deficit is indicated by the inability of the animal to maintain equilibrium for 1 min in each of three trials. ESL, CBZ, OXC and R-Lic were dissolved in dimethyl sulfoxide (DMSO) (2 ml/kg) and given intraperitoneally (see ROGAWSKI, M. A., […], S., JONES, S. M., RICE, K. C., […], A. & MONN, J. A. (1991). Anticonvulsant activity of the low-affinity uncompetitive N-methyl-D-aspartate antagonist (+−)-5-aminocarbonyl-10,11-dihydro-5H-dibenzo[a,d]cyclohepten-5,10-imine (ADCI): comparison with the structural analogs dizocilpine (MK-801) and carbamazepine. J Pharmacol Exp Ther, 259, 30-37).

For series [4], the system named is voltage-gated sodium channel (VGSC). The note with it: cited from earlier work.
Series [5] relates to voltage-sensitive sodium channels. Description: [3H]BTX displacement binding to whole brain membranes. The note with it: FIG. 3; for Degree of interaction with site 2 in voltage-gated sodium channels, relative to oxcarbazepine: [3H]-BTX displacement. Here is the method:
Blockade of voltage-sensitive sodium channels was studied by investigating [3H]batrachotoxinin A […] ([3H]BTX) displacement binding to whole brain membranes. Animals were decapitated and their brains quickly removed. Membrane preparation and binding assays were performed essentially as previously described (Shimidzu et al., 1997). Brains (without cerebellum) were homogenised in 10 vol 0.32 M sucrose, 1 mM EDTA, 1 mg/ml bovine serum albumin (BSA), 5 mM HEPES/TRIS pH 7.4 with a Teflon homogeniser (8 strokes at 400 r.p.m). After a 10 min centrifugation at 1,000 g the supernatants were centrifuged for 20 min at 39,000 g and pellets were homogenised with 20 vol or 40 vol Na+-free buffer, respectively for [3H]-batrachotoxinin A 20-alpha-benzoate ([3H]-BTX) binding assays. Na+-free buffer had the following composition (in mM): 130 choline chloride, 0.8 MgSO4, 5.4 KCl, 5.5 D-glucose, 50 HEPES/TRIS, pH 7.4. The homogenate was centrifuged for 20 min at 39,000 g and the resultant pellets were resuspended in Na+-free buffer. Protein concentration in membrane preparations was determined with BioRad Protein Assay (BioRad) using a standard curve of BSA (50-250 μg/ml). In [3H]-BTX binding assay experiments membrane preparations (200 μg protein) were incubated for 1 h at 37° C. with 10 nM (inhibition experiments) or 1-200 nM (saturation experiments) [3H]-BTX in Na+-free buffer containing 2 μM scorpion toxin, 1 μM tetrodotoxin and 1 mg/ml BSA in 96-well EIA/RIA plates (COSTAR). In inhibition experiments the reaction buffer contained also 3-1000 μM of test drugs. Nonspecific binding was determined in the presence of 300 μM veratridine. Nonspecific binding was 26±2% of total binding at 10 nM [3H-BTX]. After incubation the reaction was terminated by vacuum filtration (Brandel 96 harvester) through glassfiber filtermats (Wallac). […] Filtermats were dried, impregnated with MeltiLex A scintillation mixture (Wallac), inserted into plastic sample bags (Wallac) and radioactivity determined in a Microbeta 1224-510 counter (Wallac).

For series [6] the following is noted: humans; subject-dependent; cited from earlier work.
Series [7] relates to naive mice (male Charles River). Description: Rotarod test (motor impairment). It is filed as in vivo. The note with it: intraperitoneally, 15 min after administration, 15 r.p.m. Here is the method:
as §1

`NC(=O)N1c2ccccc2C=Cc2ccccc21` [CBZ, carbamazepine, reference compound]: in the series on Mice (NMRI) [1], the “Formalin paw test licking time (s) at 100 mg/kg” value (“Formalin paw test licking time” for short) came to 5.3 s, the “Effect on licking in the formalin test at 300 mg/kg” value is recorded as “abolished licking” and the median effective dose (ED50) came to 38.2 mg/kg. Moreover, in the series with Mice (NMRI) [2] (NMRI), the “Sedation (%) at 300 mg/kg” value is 100% and the “Sedation observed (mice sedated / mice given)” value is 10/10. In series [3], the ED50 at 15 min amounted to 29.7 mg/kg.

`CC(=O)O[C@H]1Cc2ccccc2N(C(N)=O)c2ccccc21` [ESL, S-(−)-10-acetoxy-10,11-dihydro-5H-dibenz/b,f/azepine-5-carboxamide]: in the series with Mice (NMRI) [1], the “Formalin paw test licking time” value is 33.6 s, the “Effect on licking in the formalin test at 300 mg/kg” value is listed as “abolished licking” and the ED50 stood at 69.7 mg/kg. Besides, the “Affinity for the resting state of the channel relative to CBZ” value in series [4] was “about 3 fold lower”. Further, in the series on Mice (NMRI) [2] (NMRI), the “Sedation (%) at 300 mg/kg” value is on record as 10% and the “Sedation observed (mice sedated / mice given)” value is 1/10. Moreover, it took a dose of 139 mg/kg to reach the 50% effect level in series [3] (ED50 at 15 min).

`NC(=O)N1c2ccccc2CC(=O)c2ccccc21` [Oxc, oxcarbazepine, reference compound]: the “Formalin paw test licking time” value in the series with Mice (NMRI) [1] was 1 s. For the same molecule, in the series on Mice (NMRI) [2] (NMRI), the “Sedation (%) at 300 mg/kg” value is recorded as 90%. In series [3], this molecule yielded an ED50 at 15 min of 50.2 mg/kg.

Regarding `NC(=O)N1c2ccccc2C[C@@H](O)c2ccccc21` [R-Lic, R-licarbazepine], in series [5], the “Ability to displace [3H]-BTX from its binding site in whole brain membranes, compared with oxcarbazepine” value is reported as “reduced ability to displaced” and the “Degree of interaction with site 2 in voltage-gated sodium channels, relative to oxcarbazepine” value is given as “approximately 2.5 times less”. The “Formalin paw test licking time” value in the series with Mice (NMRI) [1] came to 36.7 s. The “Proportion in which the enantiomer is formed as metabolite of oxcarbazepine” value in series [6] was about 20%. In addition, the “Sedation (%) at 300 mg/kg” value with Mice (NMRI) [2] is 20%. In series [7], the “Rotarod test ED50 values” is on record as 97.4 mg/kg.

Consider `NC(=O)N1c2ccccc2C[C@H](O)c2ccccc21` [S-Lic, S-licarbazepine], for which the “Degree of interaction with site 2 in voltage-gated sodium channels, relative to oxcarbazepine” value in series [5] is “approximately 2.5 times less”. Moreover, the “Proportion in which the enantiomer is formed as metabolite of oxcarbazepine” value in series [6] is given as “approximately 80%”.
